This assay addresses T1, human IL-17AA (Homo sapiens, UniProt Q16552).
T1 construct: host or cells: HEK (human embryonic kidney) cells
T1 sequence (Q16552 24-155): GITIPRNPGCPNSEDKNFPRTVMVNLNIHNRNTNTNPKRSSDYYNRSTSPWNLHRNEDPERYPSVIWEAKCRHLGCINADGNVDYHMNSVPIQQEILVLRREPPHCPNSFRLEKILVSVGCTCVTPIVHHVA
The experiment in a line: IL-8 release assay in human epithelial keratinocytes adult (HEKa). The assay is classed as cell-based. As to conditions: HEKa cells, 3 ng/mL HEK-human IL-17AA + 10 ng/mL human TNFalpha; read-out: Rel EC50 IL-8 release assay. A digest of the protocol:
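Adult human epidermal keratinocytes stimulated 68-72 h at 37 °C with 3 ng/mL HEK-derived human IL-17AA plus 10 ng/mL TNF-alpha (final) in the presence of compound; TNF-alpha alone defines 100% inhibition. Secreted IL-8 measured by HTRF as percent of controls; relative IC50/Emax from four-parameter fit (r^2>0.9), cytotoxicity by PrestoBlue.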

Bounds are passed on as bounds.

One may read the EC50 as the concentration that produces a half-maximal response.

For the compound `Cc1n[nH]c(C)c1-c1ccc(NC(=O)[C@@H](NC(=O)c2ccnn2CC#N)C(C2CC2)C2CC2)cc1` [Example 207, 2-(cyanomethyl)-N-[(1S)-1-(dicyclopropylmethyl)-2-[4-(3,5-dimethyl-1H-pyrazol-4-yl)anilino]-2-oxo-ethyl]pyrazole-3-carboxamide], the EC50 fell in the range of 100 to 1000 nM.
The figure for `Cc1n[nH]c(C)c1-c1ccc(NC(=O)C(NC(=O)c2ccnn2C)C(c2ccccc2)C2CC2)cc1` (single isomer, unassigned) [Example 304, N-[1-[cyclopropyl(phenyl)methyl]-2-[4-(3,5-dimethyl-1H-pyrazol-4-yl)anilino]-2-oxo-ethyl]-2-methyl-pyrazole-3-carboxamide] is over 1000 nM; for `CCn1nccc1C(=O)N[C@H](C(=O)Nc1ccc(-c2c(C)n[nH]c2C)cc1)[C@H]1CCCC(F)(F)C1` [Example 22, N-[(1S)-1-[(1S)-3,3-difluorocyclohexyl]-2-[4-(3,5-dimethyl-1H-pyrazol-4-yl)anilino]-2-oxo-ethyl]-2-ethyl-pyrazole-3-carboxamide] it is 100 to 1000 nM.
The result for `Cc1[nH]nc(C(C)C)c1-c1ccc(NC(=O)[C@@H](NC(=O)c2ccnn2C(C)C)C(C2CC2)C2CC2)cc1` [Example 386, N-[(1S)-1-(dicyclopropylmethyl)-2-[4-(3-isopropyl-5-methyl-1H-pyrazol-4-yl)anilino]-2-oxo-ethyl]-2-isopropyl-pyrazole-3-carboxamide] reads under 100 nM; that for `Cc1n[nH]c(C)c1-c1ccc(NC(=O)[C@@H](NC(=O)c2ccnn2C(C)C2CC2)C(C2CC2)C2CC2)cc1` (stereo partly drawn) [Example 222, 2-(1-cyclopropylethyl)-N-[(1S)-1-(dicyclopropylmethyl)-2-[4-(3,5-dimethyl-1H-pyrazol-4-yl)anilino]-2-oxo-ethyl]pyrazole-3-carboxamide], under 100 nM; that for `Cc1ncn(C)c1-c1ccc(NC(=O)C(NC(=O)OC(C)(C)C)C2CCC(F)(F)CC2)cc1` (single isomer, unassigned) [Example 86, tert-butyl N-[1-(4,4-difluorocyclohexyl)-2-[4-(3,5-dimethylimidazol-4-yl)anilino]-2-oxo-ethyl]carbamate], over 1000 nM.
The result for `Cc1n[nH]c(C)c1-c1ccc(NC(=O)[C@@H](NC(=O)c2ccnn2C(C)C)[C@H]2CCCC(F)(F)C2)cc1` [Example 23, N-[(1S)-1-[(1S)-3,3-difluorocyclohexyl]-2-[4-(3,5-dimethyl-1H-pyrazol-4-yl)anilino]-2-oxo-ethyl]-2-isopropyl-pyrazole-3-carboxamide] reads under 100 nM.
Turning to `Cc1n[nH]c(C)c1-c1ccc(NC(=O)[C@@H](NC(=O)c2ccnn2C)[C@@H]2CCc3ccc(Cl)cc32)cc1` [Example 77, N-[(1S)-1-[(1R)-6-chloroindan-1-yl]-2-[4-(3,5-dimethyl-1H-pyrazol-4-yl)anilino]-2-oxo-ethyl]-2-methyl-pyrazole-3-carboxamide], the EC50 is 100 to 1000 nM.
The result for `Cc1n[nH]c(C)c1-c1ccc(NC(=O)[C@@H](NC(=O)c2ccnn2C(C)CO)C2CCCCC2)cc1` (single isomer, unassigned) [Example 104] reads 100 to 1000 nM; that for `Cc1[nH]nc(CO)c1-c1ccc(NC(=O)[C@@H](NC(=O)OC(C)(C)C)C2CCCCCC2)cc1` [Example 439, tert-butyl N-[(1S)-1-cycloheptyl-2-[4-[5-(hydroxymethyl)-3-methyl-1H-pyrazol-4-yl]anilino]-2-oxo-ethyl]carbamate], 100 to 1000 nM.
The figure for `Cc1cnccc1-c1ccc(NC(=O)[C@@H](NC(=O)c2ccnn2C(C)C)C(C2CC2)C2CC2)cc1` [Example 405, N-[(1S)-1-(dicyclopropylmethyl)-2-[4-(3-methyl-4-pyridyl)anilino]-2-oxo-ethyl]-2-isopropyl-pyrazole-3-carboxamide] is under 100 nM; for `Cc1n[nH]c(C)c1-c1ccc(NC(=O)C(NC(=O)c2ccnn2[C@@H](C)CO)C2CCCCCCC2)cc1` (single isomer, unassigned) [Example 151] it is under 100 nM.
In the case of `Cc1n[nH]c(C)c1-c1ccc(NC(=O)C(NC(=O)c2ccnn2C(C)C)C2CCCCCCC2)cc1` (single isomer, unassigned) [Example 153, N-[1-cyclooctyl-2-[4-(3,5-dimethyl-1H-pyrazol-4-yl)anilino]-2-oxo-ethyl]-2-(1-methylethyl)pyrazole-3-carboxamide], the concentration giving a half-maximal response (EC50) is 100 to 1000 nM.
The result for `CCC(CC)[C@H](NC(=O)OC(C)(C)C)C(=O)Nc1ccc(-c2c(C)ncn2C)cc1` [Example 89, tert-butyl N-[(1S)-1-[[4-(3,5-dimethylimidazol-4-yl)phenyl]carbamoyl]-2-ethyl-butyl]carbamate] reads over 1000 nM.
With `Cn1cncc1-c1ccc(NC(=O)C(NC(=O)c2ccnn2C)C(c2cccc(F)c2)c2cccc(F)c2)cc1` (single isomer, unassigned) [Example 374B, N-(1,1-Bis(3-Fluorophenyl)-3-((4-(1-methyl-1H-imidazol-5-yl)phenyl)amino)-3-oxopropan-2-yl)-1-methyl-1H-pyrazole-5-carboxamide], the EC50 was over 1000 nM.
The result for `Cc1n[nH]c(C)c1-c1ccc(NC(=O)[C@@H](NC(=O)c2ccnn2CC(F)F)C2CCCCC2)cc1` [Example 106, N-[(1S)-1-cyclohexyl-2-[4-(3,5-dimethyl-1H-pyrazol-4-yl)anilino]-2-oxo-ethyl]-2-(2,2-difluoroethyl)pyrazole-3-carboxamide] reads under 100 nM; that for `Cc1n[nH]c(C)c1-c1ccc(NC(=O)[C@@H](NC(=O)c2conc2C(C)C)C(C2CC2)C2CC2)cc1` [Example 291, N-[(1S)-1-(dicyclopropylmethyl)-2-[4-(3,5-dimethyl-1H-pyrazol-4-yl)anilino]-2-oxo-ethyl]-3-isopropyl-isoxazole-4-carboxamide], under 100 nM; that for `Cc1n[nH]c(C)c1-c1ccc(NC(=O)[C@@H](NC(=O)c2ccnn2C)[C@H]2CCCC3(CC3)C2)cc1` [Example 250, N-[(1S)-2-[4-(3,5-dimethyl-1H-pyrazol-4-yl)anilino]-2-oxo-1-[(7S)-spiro[2.5]octan-7-yl]ethyl]-2-methyl-pyrazole-3-carboxamide], under 100 nM.
The figure for `Cc1n[nH]c(C)c1-c1ccc(NC(=O)[C@@H](NC(=O)c2c[nH]c3ncccc23)C2CCCCC2)cc1` [Example 65, N-[(1S)-1-cyclohexyl-2-[4-(3,5-dimethyl-1H-pyrazol-4-yl)anilino]-2-oxo-ethyl]-1H-pyrrolo[2,3-b]pyridine-3-carboxamide] is over 1000 nM; for `Cc1ncn(C)c1-c1ccc(NC(=O)C(NC(=O)OC(C)(C)C)C2CCC(F)(F)CC2)cc1` (single isomer, unassigned) [Example 85, tert-butyl N-[1-(4,4-difluorocyclohexyl)-2-[4-(3,5-dimethylimidazol-4-yl)anilino]-2-oxo-ethyl]carbamate] it is over 1000 nM; for `Cc1n[nH]c(C)c1-c1ccc(NC(=O)C(NC(=O)c2ccnn2C(C)C)C(C2CC2)C2CC2)cc1` (racemic) [Example 31, N-[1-(dicyclopropylmethyl)-2-[4-(3,5-dimethyl-1H-pyrazol-4-yl)anilino]-2-oxo-ethyl]-2-isopropyl-pyrazole-3-carboxamide] it is under 100 nM.
`Cc1n[nH]c(C)c1-c1ccc(NC(=O)[C@@H](NC(=O)c2c(C)ncn2C)C2CCCCC2)cc1` [Example 50, N-[(1S)-1-cyclohexyl-2-[4-(3,5-dimethyl-1H-pyrazol-4-yl)anilino]-2-oxo-ethyl]-3,5-dimethyl-imidazole-4-carboxamide]: the concentration for a half-maximal effect (EC50) is over 1000 nM.
On to `Cc1n[nH]c(C)c1-c1ccc(NC(=O)[C@@H](NC(=O)Cn2ccnc2C)C2CCCCC2)cc1` [Example 53, (2S)-2-cyclohexyl-N-[4-(3,5-dimethyl-1H-pyrazol-4-yl)phenyl]-2-[[2-(2-methylimidazol-1-yl)acetyl]amino]acetamide], for which the EC50 is over 1000 nM.
The figure for `CCOc1n[nH]c(C)c1-c1ccc(NC(=O)[C@@H](NC(=O)c2ccnn2C)C2CCCCC2)cc1` [Example 359, N-[(1S)-1-cyclohexyl-2-[4-(5-ethoxy-3-methyl-1H-pyrazol-4-yl)anilino]-2-oxo-ethyl]-2-methyl-pyrazole-3-carboxamide] is 100 to 1000 nM.
On to `Cc1n[nH]c(C)c1-c1ccc(NC(=O)[C@@H](NC(=O)c2ccnn2C(C)CO)[C@H]2CC[C@H](C)CC2)cc1` (single isomer, unassigned) [Example 204], for which the EC50 was under 100 nM.
The result for `Cc1nocc1C(=O)N[C@H](C(=O)Nc1ccc(-c2c(C)n[nH]c2C)cc1)C(C1CCC1)C1CCC1` [Example 274, N-[(1S)-1-[di(cyclobutyl)methyl]-2-[4-(3,5-dimethyl-1H-pyrazol-4-yl)anilino]-2-oxo-ethyl]-3-methyl-isoxazole-4-carboxamide] reads under 100 nM; that for `COc1n[nH]c(C)c1-c1ccc(NC(=O)[C@@H](NC(=O)c2ccnn2C)C2CCCCC2)cc1` [Example 358, N-[(1S)-1-cyclohexyl-2-[4-(5-methoxy-3-methyl-1H-pyrazol-4-yl)anilino]-2-oxo-ethyl]-2-methyl-pyrazole-3-carboxamide], over 1000 nM; that for `Cc1n[nH]c(C)c1-c1ccc(NC(=O)C(NC(=O)c2ccnn2C(C)C)C(C2CC(F)(F)C2)C2CC(F)(F)C2)cc1` (stereo not shown) [Example 295, N-[1-[bis(3,3-difluorocyclobutyl)methyl]-2-[4-(3,5-dimethyl-1H-pyrazol-4-yl)anilino]-2-oxo-ethyl]-2-isopropyl-pyrazole-3-carboxamide], 100 to 1000 nM.

Source of the values: patent publication US11377425B1, “Small molecule modulators of IL-17” (LEO Pharma A/S, priority 2018, dated 2022).
